Patent US8987171B2, “Selective herbicides with activator adjuvants” (W. Neudorff GmbH KG, priority 2010, dated 2015)
Where two headings read alike, the source gives them in different places.

Assays:
[1] = tested on: white clover; test: Greenhouse white clover and turf test, iron chelates with Sylgard 309 (Example 6): white clover damage; format: in vivo, white clover (Trifolium repens); details: sprayed twice at 200 ml/m^2, 14 days after second spraying, visual rating 0-100%
Description: (§1) The following non-limiting examples serve to further describe the invention. Unless otherwise specified, all of the iron solutions were made using the same molar concentration of iron ion as chelating agent. Samples were prepared by diluting a metal chelate, such as iron GLDA (Dissolvine GL-Fe-5), iron EDDS (Enviomet C320), or iron HEDTA (Neu 1173H), to the desired level of iron as specified using simple stirring. Neu 1173H contains the stabilizer sodium citrate at 1.5% prior to dilution. Dilutions of Neu1173H to the level of 0.25% Fe, incorporates 0.08% sodium citrate into the spray solutions. Adjuvants (Sylgard® 309, Biosoft®D-40, Tween® 20), were then diluted and added to the diluted metal chelate. Samples were usually prepared within 48 hours of spraying. All of the outside tests were done on areas of mixed grass and white clover that were at least 2 months old. For the greenhouse tests, white clover and black medic were grown in a commercial greenhouse mix using supplemental lighting and heating. Each plant was grown in a 2¼ inch pot to a minimum diameter of 15-20 cm. Perennial ryegrass was grown in 2¼ inch pots in the same greenhouse conditions as above and they are at least 4 weeks old at the time of application. […]
(§2) All plant damage was visually assessed using a percentage rating scale from 0 (no injury) to 100% (death). […]

[2] = tested on: perennial ryegrass; test: Greenhouse white clover and turf test, iron chelates with Sylgard 309 (Example 6): grass damage; format: in vivo; details: sprayed twice at 200 ml/m^2, 14 days after second spraying, visual rating 0-100%
Description: as §1, §2

[3] = tested on: park lawn; test: Field English daisy and turf test, iron chelates with Sylgard 309 and Bio-Soft D-40 (Example 9): grass damage; format: in vivo; details: sprayed twice at 100 ml/m^2, 7 days after first spraying, visual rating 0-100%
Description: as §1, §2

[4] = tested on: perennial ryegrass; test: Greenhouse black medic and turf test, iron chelates with Sylgard 309 (Example 2): grass damage; format: in vivo; details: sprayed twice at 200 ml/m^2, 7 days after first spraying, visual rating 0-100%
Description: as §1, §2

[5] = tested on: English daisy; test: Field English daisy and turf test, iron chelates with Sylgard 309 and Bio-Soft D-40 (Example 9): English daisy damage; format: in vivo, English daisy (Bellis perennis); details: sprayed twice at 100 ml/m^2, 7 days after first spraying, visual rating 0-100%
Description: as §1, §2

[6] = tested on: black medic; test: Greenhouse black medic and turf test, iron chelates with Sylgard 309 (Example 2): black medic damage; format: in vivo; details: sprayed twice at 200 ml/m^2, 7 days after first spraying, visual rating 0-100%
Description: as §1, §2

[7] = tested on: perennial ryegrass; test: Greenhouse dandelion and turf test, iron chelates with Sylgard 309 (Example 7): grass damage; format: in vivo; details: sprayed twice at 200 ml/m^2, 7 days after first spraying, visual rating 0-100%
Description: as §1, §2

[8] = tested on: perennial ryegrass; format: in vivo; details: greenhouse, sprayed twice at 200 ml/m^2, one day after first spraying, visual rating 0-100%
Description: as §1, §2

[9] = tested on: perennial ryegrass; test: Greenhouse white clover and turf test, iron chelates with Sylgard 309 (Example 1): grass damage; format: in vivo; details: sprayed twice at 200 ml/m^2, 7 days after second spraying, visual rating 0 (no injury) to 100% (death)
Description: as §1, §2

[10] = tested on: dandelion; test: Greenhouse dandelion and turf test, iron chelates with Sylgard 309 (Example 7): dandelion damage; format: in vivo, dandelion (Taraxacum officinale); details: sprayed twice at 200 ml/m^2, 7 days after first spraying, visual rating 0-100%
Description: as §1, §2

[11] = tested on: white clover; test: Greenhouse white clover and turf test, iron chelates with Sylgard 309 (Example 1): white clover damage; format: in vivo, white clover (Trifolium repens); details: sprayed twice at 200 ml/m^2, 7 days after second spraying, visual rating 0-100%
Description: as §1, §2

[12] = tested on: white clover; test: Greenhouse white clover and turf test, iron chelates with Bio-Soft D-40 (Example 3): white clover damage; format: in vivo, white clover (Trifolium repens); details: sprayed twice at 200 ml/m^2, one day after first spraying, visual rating 0-100%
Description: as §1, §2

[13] = tested on: white clover; test: Greenhouse white clover and turf test, iron chelates with Tween 20 (Example 5): white clover damage; format: in vivo, white clover (Trifolium repens); details: sprayed twice at 200 ml/m^2, one day after first spraying, visual rating 0-100%
Description: as §1, §2

[14] = tested on: white clover; test: Field white clover and turf test, iron chelates with Bio-Soft D-40 (Example 4): white clover damage; format: in vivo, white clover (Trifolium repens); details: sprayed twice at 200 ml/m^2, 14 days after second spraying, visual rating 0-100%
Description: as §1, §2

[15] = tested on: English daisy; test: Field English daisy and turf test, iron chelates with Sylgard 309 (Example 8): English daisy damage; format: in vivo, English daisy (Bellis perennis); details: sprayed twice at 200 ml/m^2, 5 days after first spraying, visual rating 0-100%
Description: as §1, §2

[16] = tested on: park lawn; test: Field white clover and turf test, iron chelates with Bio-Soft D-40 (Example 4): grass damage; format: in vivo; details: sprayed twice at 200 ml/m^2, 14 days after second spraying, visual rating 0-100%
Description: as §1, §2

[17] = tested on: park lawn; test: Field English daisy and turf test, iron chelates with Sylgard 309 (Example 8): grass damage; format: in vivo; details: sprayed twice at 200 ml/m^2, 5 days after first spraying, visual rating 0-100%
Description: as §1, §2

[18] = tested on: perennial ryegrass; test: Greenhouse white clover and turf test, iron chelates with Tween 20 (Example 5): grass damage; format: in vivo; details: sprayed twice at 200 ml/m^2, one day after first spraying, visual rating 0-100%
Description: as §1, §2

Substance: iron hydroxyethylenediaminetriacetic acid [FeHEDTA 1.5% a.i (0.25% Fe)]
- White Clover Damage (%) [1]: 46%
- Grass Damage (%) [2]: 2%
- Grass Damage (%) [3]: 2%
- Grass Damage (%) [4]: 3%
- English daisy Damage (%) [5]: 81%
- Black Medic Damage (%) [6]: 54%

Substance: iron glutamicaciddiacetic acid [FeGLDA 2.28% a.i. (0.4% Fe)]
- Grass Damage (%) [7]: 6%
- Grass Damage (%) [8]: 0%
- Grass Damage (%) [9]: 8%
- Dandelion Damage (%) [10]: 38%
- White Clover Damage (%) [11]: 7%
- White Clover Damage (%) [12]: 8%

Substance: iron ethylenediaminedisuccinate [FeEDDS 2.49% a.i. (0.4% Fe)]
- White Clover Damage (%) [13]: 18%
- Grass Damage (%) [8]: 1%
- White Clover Damage (%) [14]: 38%
- English daisy Damage (%) [15]: 39%
- Grass Damage (%) [16]: 1%
- Grass Damage (%) [9]: 3%
- Grass Damage (%) [4]: 2%
- Grass Damage (%) [17]: 4%
- Grass Damage (%) [18]: 0%
- White Clover Damage (%) [11]: 27%
- White Clover Damage (%) [12]: 15%
- Black Medic Damage (%) [6]: 28%
